Results as given in US6682897B1, “Peptides derived from human heat protein 60 for treatment of diabetes, compositions, methods and kits” (Yeda Research and Development Co. Ltd., priority 1995, dated 2004).
Marks after values point to notes of the source that are not given here. Where no end group is shown, it is not given here.

Experiments:
female NOD mice = test: Peptide treatment of 10-week old NOD mice, development of diabetes (Example 4, FIG. 4); type: in vivo; details: single s.c. injection in IFA at 10 weeks, observed through 8 months of age, vs IFA alone
Experimental: FIG. 4 is a graph showing the effect of peptide administration on diabetes. Groups of 10-20 NOD mice were treated at 10 weeks of age with 100 μg of mouse p12, p277, p35-GAD or MT-p278 in IFA, or IFA alone. The mice were bled monthly and followed for the onset of hyperglycemia.
(§1) (iv) Treatment and follow-up. Peptides, […], in PBS, were emulsified with an equal volume of IFA and injected subcutaneously into 10-week-old NOD females as described (Elias and Cohen, 1995). Control mice received an equal volume of PBS emulsified in IFA. The mice were monitored monthly for non-fasting blood glucose at 10am using the Blood Glucose Sensor (MediSense. Inc., Waltham, Mass.). Mice with a blood glucose greater than 11.1 mmol/L were considered to be diabetic; this concentration of glucose was greater than 3 standard deviations above the mean blood glucose concentration measured in non-diabetic mice (Elias and Cohen, 1995). Histological examination of the islets of the pancreas was done on sections stained with hematoxylin and eosin. The sections were scored independently by two observers who both were unaware of the identity of the groups. The chi square test was used to ascertain the statistical differences between the various treatments.
Following a protocol shown to be effective with mouse p277(Elias et al., 1991; Elias and Cohen, 1994; Elias and Cohen, 1995), groups of 10-week old female NOD mice were treatedby a single subcutaneous injection of each peptide ([…]) emulsified in IFA.

NOD mice = details: s.c. in IFA; young NOD mice or 12-17 week old NOD mice with advanced insulitis; cited from earlier work
C57BL/KsJ mice = details: mice that had received earlier a very low dose of STZ; cited from earlier work
[1] = test system: spleens of female NOD mice; test: Spontaneous T-cell responses in spleens of female NOD mice (longitudinal study); type: cell-based; details: female NOD mice at ages 3-16 weeks
draining lymph nodes = test: T-cell proliferative responses of NOD mice to peptides (Example 4, FIG. 3); type: cell-based; details: NOD mice immunized with 25 μg peptide in IFA, lymph nodes 10 days later, 20 μg/ml
Experimental: FIG. 3 is a graph showing T-cell proliferative responses of NOD mice to peptides. Groups of three NOD mice were […] with peptides mouse p12, mouse p277, GAD-p35 and MT-p278 in IFA each at a dose of 25 μg in IFA. The draining lymph nodes were removed 10 days later and assayed for proliferative responses to the corresponding peptide at the concentrations of 5, 10, 20, and 50 μg/ml. The stimulation at the optimal concentration of 20 μg/ml is shown. The following ranges of cpm were obtained in medium controls: mouse p12, 881; mouse p277, 1243; MT-p278, 698 and GAD-p35 1430. Peptide mouse p38 is a peptide derived from mouse hsp60 (556-573), which has no sequence homology with the tested peptides and serves as a negative control of specificity. […] Each assay was done in triplicates for which the SD values are indicated by the bars. There was no cross-reactivity between the peptides (not shown).
(§2) (iii) T-Cell proliferation to peptides. Mice. Nine week old NOD mice or mice of other strains were immunized in the hind foot pads with 0.1 ml of an emulsion containing 25 μg peptide in complete Freund's adjuvant (CFA; Difco, Detroit, Mich.) mixed with an equal volume of phosphate-buffered saline (PBS). The draining popliteal lymph nodes were removed 10 days later and suspensions of lymphocytes in triplicate cultures were tested for proliferation in the presence of the various peptides (5 μg/ml) using the incorporation of [^3H]-thymidine as described (Elias et al., 1991). The results are shown as the stimulation index (SI): the ratio of the mean cpm in the presence of the test peptide to the mean cpm of control cultures without the peptide. Standard errors were always less than 10% of the means.
Spontaneous T cell responses in pre-diabetic NOD mice were detected to the mouse p277 peptide (Elias et al., 1991; Birk et al., 1996) and to larger fragments of the mouse hsp60 molecule that contained the mouse p277 sequence (Birk et al., 1996). […] Other peptides immunogenic for NOD mice are the MT-p278 peptide (residues 458-474 in the Mycobacterial hsp60 molecule), and GAD-p35 (residues 524-543 in the GAD65 molecule).

[2] = test system: serum antibodies of the IgG1, IgG2a and IgG2b isotypes; test: Serum anti-peptide antibody isotypes by ELISA in peptide-treated NOD mice (FIG. 5); type: in vivo; details: for antibody titers of the IgG1 and IgG2b isotypes: peptide-treated NOD mice, sera diluted 1:50, ELISA
Experimental: FIGS. 5A-5D show the IgG1, IgG2a and IgG2b antibody isotypes in response to peptide treatment. Mice were treated as described in the legend to FIG. 4. Individual samples were analyzed for antibodies to mouse p12 A; p277 B; GAD-p35 C; and MT-p278 D, of the IgG1, IgG2a and IgG2b isotypes. Similar effects were obtained in two experiments. The results are presented as the absorbance at 405 nm (OD) of 10 individual mice in each group. The level of significance of the prevalence of IgG1 and IgG2b antibodies in groups A and B compared to C and D is P<0.001. The differences between the levels of IgG1 and IgG2b antibodies compared to the IgG2a antibodies in groups A and B were significant (P<0.001). There was no cross-reactivity between the antibodies (not shown).
(v) Serum Antibodies. Mice were bled monthly to detect antibody responses. The ELISA assay was done as described (Elias et al., 1991). Briefly, flat bottom Maxi-sorb plates (Nunc, Roskilde, Denmark) were coated, for the detection of anti-peptide antibodies, with […] of peptide in PBS, at a concentration of […] for 2 h at room temperature followed by over night incubation at 4° C. After incubation with peptide, the plates were washed and blocked for 2 h at 37° C. with 7% BSA (Sigma) in PBS. Sera were diluted 1:50 then added for 2 h at 37° C., followed by incubation for 2 h with […] of goat anti-mouse IgG (gamma chain Fc specific) conjugated to alkaline phosphatase (Jackson, Philadelphia, Pa.). After washing, the plates were incubated with the substrate, diethanolamine (Sigma) and read using an ELISA reader at 405 nm.
Successful treatment of STZ-induced diabetes with mouse peptide p277 was associated with the appearance of anti-peptide antibodies predominantly of the IgG1 and IgG2b isotypes (Elias and Cohen, 1996). The peptide-treated NOD mice for their serum antibodies was therefore examined. […] Thus, effectiveness in inhibiting diabetes was associated with the induction of an antibody response mainly of the IgG1 and IgG2b isotypes.

[3] = compared with p277; cited from earlier work
[4] = test system: draining popliteal lymph node lymphocytes; test: T-cell proliferation of draining lymph node cells of NOD mice immunized with hsp60 peptides in CFA (Example 1, FIG. 2); type: cell-based; details: NOD mice immunized with peptide emulsified in CFA in hind foot pads, assayed after 10 days
Experimental: as §2, with “1991).” for “1991). The results are shown as the stimulation index (SI): the ratio of the mean cpm in the presence of the test peptide to the mean cpm of control cultures without the peptide. Standard errors were always less than 10% of the means.”
The immunogenicity of the hsp60 peptides p12, p32, p277(Val^6-Val^11) and p278 in NOD mice was tested by immunizing the mice with the peptides emulsified in CFA in the hind foot pads, and assaying the proliferative responses of draining lymph node cells after 10 days as described above in section iii(a).

NOD/Lt female mice = test: Treatment of NOD mice with peptides in IFA: diabetes and mortality (Example 2); type: in vivo; details: 100 μg peptide in IFA s.c., nine-week old NOD/Lt females; for Diabetes (%): persistent blood glucose over 11.1 mmol/l at 25 weeks of age
Experimental: as §1, with “Mice with a blood glucose greater than 11.1 mmol/L were considered to be diabetic; this concentration of glucose was greater than 3 standard deviations above the mean blood glucose concentration measured in non-diabetic mice (Elias and Cohen, 1995).” left out
To test whether the p12 and p32 peptides can block the progression of diabetes as p277(Val^6-Val^11), the p277(Val6-Val^11), p12 or p32 peptides (100 μg in a 0.1 cc emulsion of IFA) were administered subcutaneously to groups of 10-12 nine-week old NOD/Lt female mice of the Jackson Laboratory, Bar-Harbor, Me. Diabetes, determined as persistent blood glucose levels over 11.1 mmol/l, was tested at 25 weeks of age. Control mice were untreated or were treated with p278.

[5] = test system: Peripheral mononuclear cells (PBMC) of IDDM patients; test: T-cell proliferative response of PBMC from newly diagnosed IDDM patients (Example 3); type: cell-based, human; details: antigen 10 μg/ml, 6 days, SI more than 2.0 positive
Experimental: To determine the T-cell responses to the various hsp60 peptides, lymphocytes from the peripheral blood of newly diagnosed (2 weeks-4 months) IDDM patients were tested in a proliferation assay. 10-20 ml of blood were removed into a sterile tube containing heparin as anti-coagulant and diluted in PBS 1:2. Peripheral mononuclear cells (PBMC) were isolated by centrifuging the blood over a lymphoprep layer. The PBMC were tested for proliferation in triplicates, in the presence of the various antigens (10 μg/ml) for 6 days using the incorporation of [^3H]-thymidine as a measure of proliferation. The antigens tested were human hsp60 or the hsp60 peptides p277(Val^6-Val^11), p12, p32 and control peptide p278. The T cell proliferative response is depicted as stimulation index (SI): The ratio between peptide-stimulated thymidine incorporation and background (no antigen added) thymidine incorporation by the T cells.

[6] = Cross-reactivity with native peptide by T-cell and antibody assays
Excerpt: (ii) Antigens. […] Whenever unspecified, the human sequence is intended.

peripheral blood T-cells = test: Peripheral blood T-cell proliferation of IDDM patients and healthy controls to hsp60 and hsp60 synthetic peptides (Example 5); type: cell-based, human; details: 26 newly diagnosed IDDM patients; peptides 20 μg/ml, 7 days

VLGGGCALLRCIPALDSLTPANED (cysteine pairing not given here) [p277, human hsp60 residues 437-460]
development of diabetes (female NOD mice): significantly protected | disease progression (NOD mice): arrest of disease progression | development of autoimmune diabetes (C57BL/KsJ mice): aborted the development of autoimmune diabetes

EGDEATGANIVKVALEA [MT-p278]
spontaneous T-cell responses [1]: spontaneous responses were detected | immunogenicity (T-cell proliferative response) (draining lymph nodes): as strongly immunogenic as are mouse p277 and mouse p12 | development of diabetes (female NOD mice): no different than was treatment with IFA alone | mice that made specific IgG1 antibodies ([2]; 10 individual mice per group, ELISA): only two of the ten | titers of IgG2b antibodies ([2]; compared with mouse p12 and mouse p277 groups): significantly lower titers | antibody titers of the IgG1 and IgG2b isotypes [2]: did not respond as strongly

mouse p277: mouse variant of p277, mouse hsp60 437-460; differs from human by 1 amino acid (VLGGGCALLRCIPALDSLKPANED; UniProt P63038 437-460, looked up, fragment)
spontaneous T-cell responses [1]: spontaneous responses were detected | immunogenicity (T-cell proliferative response) (draining lymph nodes): strong response | development of diabetes (female NOD mice): effective in inhibiting the development of diabetes | antibody titers of the IgG1 and IgG2b isotypes [2]: effective in inducing strong antibody titers

VLGGGVALLRVIPALDSLTPANED [p277(Val^6-Val^11)]
activity in the treatment of diabetes [3]: as active as p277 | immunogenicity (proliferative responses of draining lymph node cells) [4]: strongly immunogenic | Mortality (%) (NOD/Lt female mice): 5* % | therapeutic effect in treatment of diabetes (NOD/Lt female mice): effective in treatment of diabetes | Diabetes (%) (NOD/Lt female mice): 10% | Diabetes (%) (NOD/Lt female mice; listed as p277 (Val^6 - Val^11)): 10* % | T-cell proliferative response (SI) ([5]; Patient 1): 4.5 | T-cell proliferative response (SI) ([5]; Patient 2): 5.0 | T-cell proliferative response (SI) ([5]; Patient 3): 5.6 | T-cell proliferative response (SI) ([5]; Patient 4): 1.0 | T-cell proliferative response (SI) ([5]; Patient 5): 1.1 | T-cell proliferative response (SI) ([5]; Patient 6): 1.3 | T-cell proliferative response (SI) ([5]; Patient 7): 3.9 | T-cell proliferative response (SI) ([5]; Patient 8): 1.2 | cross-reactivity with the native peptide [6]: completely cross-reactive

LVIIAEDVDGEALSTLVLNR [p19, human hsp60 residues 271-290]
T-cell proliferative response of IDDM patients (S.I. 2 or greater positive) (peripheral blood T-cells): no IDDM patients responded

KAPGFGDNRKNQLKDMAIAT [p21, human hsp60 residues 301-320]
T-cell proliferative response of IDDM patients (S.I. 2 or greater positive) (peripheral blood T-cells): no IDDM patients responded
